Measurements taken from patent publication US8329707B2, “Substituted pyrazine compounds” (Astellas Pharma Inc., priority 2008, dated 2012).
Where a name gives a salt, the structure may show the parent alone. Read-outs that look alike come from different tables or passages of the source.

Experiments:
[1] = target: T1, recombinant human hepatic type GK (GST-hGK2) (Homo sapiens, UniProt P35557); experiment: Measurement of glucokinase (GK) activation; assay type: biochemical; conditions: 10 min, read-out: GK activation (%)
T1 construct: made in house; host or cells: Escherichia coli BL21
T1 sequence (P35557 1-466 isoform P35557-2): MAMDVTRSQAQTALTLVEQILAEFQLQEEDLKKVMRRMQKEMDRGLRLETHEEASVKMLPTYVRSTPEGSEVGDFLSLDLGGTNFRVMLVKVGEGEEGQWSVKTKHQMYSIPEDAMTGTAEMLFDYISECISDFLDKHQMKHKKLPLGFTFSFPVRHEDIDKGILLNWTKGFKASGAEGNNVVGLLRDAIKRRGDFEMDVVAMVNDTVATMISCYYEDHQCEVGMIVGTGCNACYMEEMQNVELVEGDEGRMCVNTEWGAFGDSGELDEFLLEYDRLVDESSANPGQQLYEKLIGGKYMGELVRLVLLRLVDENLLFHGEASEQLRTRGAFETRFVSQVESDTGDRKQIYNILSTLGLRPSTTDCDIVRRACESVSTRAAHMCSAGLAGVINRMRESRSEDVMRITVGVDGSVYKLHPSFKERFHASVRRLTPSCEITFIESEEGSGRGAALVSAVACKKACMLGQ
Experimental: The present test was carried out in accordance with the method described in Science 301: 370-373, 2003 and with partial modification thereof. Hereinafter, the summary is described.
First, the cloning of GK (GenBank No. AK122876) was carried out. 5′-[…]-3′(SEQ ID NO: 1) and 5′-[…]-3′(SEQ ID NO: 2) were used as primers, and pME18S-FL3-Glucokinase isoform 2 was used as a template to carry out PCR. The obtained reaction product was TA-cloned into a pGEM-T easy vector, digested with EcoRI and XhoI, and introduced to the pGEX-5X-1 vector digested in the same manner by ligation. By using this plasmid DNA (pGEX-human Glucokinase 2), a recombinant human hepatic type GK (GST-hGK2) fused with GST (Glutathione S-transferase) was expressed in Escherichia coli (BL21 strain) and purified by Glutathione Sepharose.
The reaction of GK was carried out at 27° C. on a 96-well plate. First, 1 μL of the test compound (final concentration 10 μM) that has been diluted with dimethylsulfoxide (DMSO) was added to 89 μL of an enzyme mixed liquid (all final concentration 25 mM HEPES pH 7.4, 25 mM KCl, 2 mM MgCl2, 1 mM ATP, 0.1% BSA, 1 mM DTT, 1 mM NADP (nicotinamide adenine dinucleotide phosphate), 2.5 U/ml glucose-6-phosphate dehydrogenase, GST-hGK2 adjusted to ΔODCont of about 0.05 to 0.10). Subsequently, 10 μL of a substrate solution (final concentration 5 mM glucose) was added to start the reaction. In order to quantify a final product NADPH, an absorbance at a wavelength of 340 nm was measured, and the GK activation (%) of the test compound was calculated from the increase of absorbance during the first 10 minutes (ΔOD) after initiation of the reaction. GK activation (%)=[(ΔODTest)−(ΔODCont)]/(ΔODCont)×100
ΔODTest: ΔOD at test compound

[2] = system: ICR mouse; experiment: Oral glucose tolerance test in normal mouse; assay type: in vivo; conditions: ICR mouse fasted overnight; 10 mg/kg oral, glucose loading after 30 minutes; AUC lowering rate of blood glucose up to 2 hours after glucose loading vs solvent control
Experimental: The test compound was dissolved in a solvent (5% Cremophor, aqueous 5% DMSO solution), and to an ICR mouse after fasting overnight was orally administered 10 mg/kg of the test compound, and after 30 minutes, oral glucose loading was carried out. Immediately before the administration of the test compound, immediately before the glucose loading, and 0.25, 0.5, 1, and 2 hours after the glucose loading, blood was collected and blood glucose levels were measured. An AUC lowering rate (%) of the blood glucose levels from immediately before the glucose loading to 2 hours after the glucose loading with respect to that of the solvent control group was calculated.

[3] = test compound final concentration 10 μM, 5 mM glucose, 27° C., increase of absorbance at 340 nm during first 10 minutes vs DMSO

| SMILES | activation at 10 µM [1, 3] | inhibition in vivo at 10 mg/kg [2] | activation at 10 µM [1] |
| --- | --- | --- | --- |
| O=C(Nc1ccn(CC(O)CO)n1)/C(=C/C1CCCC1)c1ccc(S(=O)(=O)C2CC2)c(C2CC2)c1 (stereo in doubt) [Example 3, (2E)-3-cyclopentyl-2-[3-cyclopropyl-4-(cyclopropylsulfonyl)phenyl]-N-{1-[(2S)-2,3-dihydroxypropyl]-1H-pyrazol-3-yl}acrylamide] | 328% |  |  |
| O=C(Nc1ccn(CCCO)n1)/C(=C/C1CCCC1)c1ccc(S(=O)(=O)C2CC2)c(C2CC2)c1 [Example 1, (2E)-3-cyclopentyl-2-[3-cyclopropyl-4-(cyclopropylsulfonyl)phenyl]-N-[1-(3-hydroxypropyl)-1H-pyrazol-3-yl]acrylamide] | 330% |  |  |
| Cn1ccc(NC(=O)/C(=C/C2CCOCC2)c2ccc(S(=O)(=O)C3CC3)c(C3CC3)c2)n1 [Example 2, (2E)-2-[3-cyclopropyl-4-(cyclopropylsulfonyl)phenyl]-N-(1-methyl-1H-pyrazol-3-yl)-3-(tetrahydro-2H-pyran-4-yl)acrylamide] | 365% |  |  |
| O=C1CC[C@H](/C=C(/C(=O)Nc2ccc(C(=O)O)cn2)c2ccc(S(=O)(=O)C3CC3)c(C3CC3)c2)C1 [Example 5, 6-({(2E)-2-[3-cyclopropyl-4-(cyclopropylsulfonyl)phenyl]-3-[(1S)-3-oxocyclopentyl]prop-2-enoyl}amino)nicotinic acid monohydrochloride] | 410% |  |  |
| O=C1CCC(/C=C(/C(=O)Nc2cnc(CO)cn2)c2ccc(S(=O)(=O)C3CC3)c(C3CC3)c2)C1 (stereo not shown) [Example 6, (2E)-2-[3-cyclopropyl-4-(cyclopropylsulfonyl)phenyl]-N-[5-(hydroxymethyl)pyrazin-2-yl]-3-(3-oxocyclopentyl)acrylamide] | 336% |  |  |
| O=C1CC[C@H](/C=C(/C(=O)Nc2nc3ccc(OCCO)nc3s2)c2ccc(S(=O)(=O)C3CC3)c(C3CC3)c2)C1 [Example 7, (2E)-2-[3-cyclopropyl-4-(cyclopropylsulfonyl)phenyl]-N-[5-(2-hydroxyethoxy)[1,3]thiazolo[5,4-b]pyridin-2-yl]-3-[(1S)-3-oxocyclopentyl]acrylamide] | 418% |  |  |
| Cc1ccc(NC(=O)[C@H](C[C@H]2CCC(=O)C2)c2ccc(S(=O)(=O)C3CC3)c(C3CC3)c2)nc1 [Example 9, (2R)-2-[3-cyclopropyl-4-(cyclopropylsulfonyl)phenyl]-N-(5-methylpyridin-2-yl)-3-[(1R)-3-oxocyclopentyl]propanamide monohydrochloride] | 333% | 52% |  |
| CC(C)(O)COc1cnc(NC(=O)[C@H](C[C@H]2CCC(=O)C2)c2ccc(S(=O)(=O)C3CC3)c(C3CC3)c2)cn1 [Example 10, (2R)-2-[3-cyclopropyl-4-(cyclopropylsulfonyl)phenyl]-N-[5-(2-hydroxy-2-methylpropoxy)pyrazin-2-yl]-3-[(1R)-3-oxocyclopentyl]propanamide] | 357% | 51% |  |
| Cn1ccc(NC(=O)/C(=C/C2CCCC2)c2ccc(S(=O)(=O)C3CC3)c(C3CC3)c2)n1 [Example 24] | 345% |  |  |
| Cn1ccc(NC(=O)/C(=C/C2CCOC2)c2ccc(S(=O)(=O)C3CC3)c(C3CC3)c2)n1 (stereo not shown) [Example 25] | 334% |  |  |
| O=C(Nc1ncc(Cl)s1)/C(=C/C1CCOCC1)c1ccc(S(=O)(=O)C2CC2)c(C2CC2)c1 [Example 26] | 231% |  |  |
| O=C(Nc1ncc(Cl)s1)/C(=C/C1CCOC1)c1ccc(S(=O)(=O)C2CC2)c(C2CC2)c1 (stereo not shown) [Example 27] | 211% |  |  |
| Cc1cnc(NC(=O)/C(=C/C2CCOCC2)c2ccc(S(=O)(=O)C3CC3)c(C3CC3)c2)cn1 [Example 28] | 314% |  |  |
| Cc1cnc(NC(=O)/C(=C/C2CCOC2)c2ccc(S(=O)(=O)C3CC3)c(C3CC3)c2)cn1 (stereo not shown) [Example 29] | 300% |  |  |
| O=C(Nc1ccn(C[C@H](O)CO)n1)/C(=C/C1CCCC1)c1ccc(S(=O)(=O)C2CC2)c(C2CC2)c1 [Example 30] | 309% |  |  |
| Cc1cnc(NC(=O)/C(=C/C2CCC(=O)C2)c2ccc(S(=O)(=O)C3CC3)c(C3CC3)c2)cn1 (stereo not shown) [Example 31] | 387% |  |  |
| Cn1ccc(NC(=O)/C(=C/C2CCC(=O)C2)c2ccc(S(=O)(=O)C3CC3)c(C3CC3)c2)n1 (stereo not shown) [Example 32] | 410% |  |  |
| O=C1CCC(/C=C(/C(=O)Nc2ncc(Cl)s2)c2ccc(S(=O)(=O)C3CC3)c(C3CC3)c2)C1 (stereo not shown) [Example 33] | 375% |  |  |
| Cc1cnc(NC(=O)/C(=C/[C@@H]2CCC(=O)C2)c2ccc(S(=O)(=O)C3CC3)c(C3CC3)c2)cn1 [Example 34] | 245% |  |  |

| SMILES | activation at 10 µM [1, 3] | inhibition in vivo at 10 mg/kg [2] | activation at 10 µM [1] |
| --- | --- | --- | --- |
| O=C1CC[C@@H](/C=C(/C(=O)Nc2ncc(Cl)s2)c2ccc(S(=O)(=O)C3CC3)c(C3CC3)c2)C1 [Example 35] | 265% |  |  |
| Cn1ccc(NC(=O)/C(=C/[C@@H]2CCC(=O)C2)c2ccc(S(=O)(=O)C3CC3)c(C3CC3)c2)n1 [Example 37] | 260% |  |  |
| O=C1CCC(/C=C(/C(=O)Nc2cnc(C(O)CO)cn2)c2ccc(S(=O)(=O)C3CC3)c(C3CC3)c2)C1 (stereo not shown) [Example 38] |  |  | 386% |
| CC(=O)c1cnc(NC(=O)/C(=C/[C@H]2CCC(=O)C2)c2ccc(S(=O)(=O)C3CC3)c(C3CC3)c2)s1 [Example 39] | 286% |  |  |
| O=C1CC[C@H](/C=C(/C(=O)Nc2nccs2)c2ccc(S(=O)(=O)C3CC3)c(C3CC3)c2)C1 [Example 40] | 397% |  |  |
| O=C1CC[C@H](/C=C(/C(=O)Nc2ncc(Cl)s2)c2ccc(S(=O)(=O)C3CC3)c(C3CC3)c2)C1 [Example 41] | 362% |  |  |
| O=C1CC[C@H](/C=C(/C(=O)Nc2nc([C@H](O)CO)cs2)c2ccc(S(=O)(=O)C3CC3)c(C3CC3)c2)C1 [Example 43] | 391% |  |  |
| CC(=O)c1csc(NC(=O)/C(=C/[C@H]2CCC(=O)C2)c2ccc(S(=O)(=O)C3CC3)c(C3CC3)c2)n1 [Example 44] |  |  | 389% |
| Cc1ccc(NC(=O)/C(=C/[C@H]2CCC(=O)C2)c2ccc(S(=O)(=O)C3CC3)c(C3CC3)c2)nc1 [Example 45] | 377% |  |  |
| O=C1CC[C@H](/C=C(/C(=O)Nc2nc(CF)cs2)c2ccc(S(=O)(=O)C3CC3)c(C3CC3)c2)C1 [Example 46] | 392% |  |  |
| O=C1CC[C@H](/C=C(/C(=O)Nc2ncc(F)s2)c2ccc(S(=O)(=O)C3CC3)c(C3CC3)c2)C1 [Example 47] | 297% |  |  |
| Cc1cnc(NC(=O)/C(=C/[C@H]2CCC(=O)C2)c2ccc(S(=O)(=O)C3CC3)c(C3CC3)c2)s1 [Example 48] | 257% |  |  |
| CC(=O)c1csc(NC(=O)[C@H](C[C@H]2CCC(=O)C2)c2ccc(S(=O)(=O)C3CC3)c(C3CC3)c2)n1 [Example 51] | 352% | 55% |  |
| CC(=O)c1cnc(NC(=O)[C@H](C[C@H]2CCC(=O)C2)c2ccc(S(=O)(=O)C3CC3)c(C3CC3)c2)cn1 [Example 74] | 337% |  |  |
| CC(C)(O)c1cnc(NC(=O)[C@H](C[C@H]2CCC(=O)C2)c2ccc(S(=O)(=O)C3CC3)c(C3CC3)c2)cn1 [Example 75] | 307% |  |  |
| Cc1ccc(NC(=O)[C@H](C[C@H]2CCC(O)C2)c2ccc(S(=O)(=O)C3CC3)c(C3CC3)c2)nc1 (stereo partly shown) [Example 81] | 211% |  |  |
| Cn1ccc(NC(=O)[C@H](C[C@H]2CCC(O)C2)c2ccc(S(=O)(=O)C3CC3)c(C3CC3)c2)n1 (stereo partly shown) [Example 85] | 257% |  |  |
| O=C1CC[C@H](C[C@@H](C(=O)Nc2cnc(CCO)cn2)c2ccc(S(=O)(=O)C3CC3)c(C3CC3)c2)C1 [Example 99] | 326% |  |  |
